In patent US20120015056A1, “COMPOSITION COMPRISING EXTRACTS OR FRACTIONS OF SPECIFIC PLANTS, USE THEREOF AND PROCESS FOR PREPARING THE EXTRACTS” (priority 2010, published 2012):

What was measured:
Type in all cases: cell-based
A549 (lung cancer) = experiment: MTT assay, viability of A549 at 500 nm; design: value of the treated group, Mean value: unit not given here
Method: (§1) Similarly, MTT assay was performed for lung cancer cell line A549 and liver cancer cell line HepG2. But, MTT solutions were added instead of XTT solutions; as a culture medium, RPMI1640 with L-glutamine (300 mg/L), 25 mM HEPES and 25 mM NaHCO3 90% and heat-inactivated fetal bovine serum (FBS) 10% was used for A549, and minimum essential medium, 25 mM HEPES and 25 mM NaHCO3 90% and heat-inactivated fetal bovine serum (FBS) 10% was used for HepG2; and MTT values were measured at 1 d, 2 d, 3 d and 4 d, respectively.
(§2) In the following, the values for the composition of the invention indicate the mean value of values obtained using the extracts of the Examples 1 to 3.
The following Table 6 and FIG. 11 show the value of the treated group determined in cell line A549.

HepG2 (liver cancer) = experiment: MTT assay, viability of HepG2 at 500 nm; design: value of the treated group, Mean value: unit not given here
Method: as §1, §2
The following Table 7 and FIG. 12 show the value of the treated group determined in cell line HepG2.

TTU-1 (breast cancer) = experiment: XTT assay, viability of TTU-1 at 450 nm
Method: Each of 5×10^3 breast cancer cells MDA-MB-231 and TTU-1 were seeded in a 96-well flat-bottomed microplate, and cultured in CO2 incubator. Cells were seeded in a 96-well tissue culture plate at a density of 10,000 cells for normal cells and 5,000 cells for cancer cells. DMEM plus 10% fetal bovine serum was used as a culture medium. […] […] After that, absorbance value were measured using microplate spectrophotometer at a wavelength of 450 nm. In addition, Annexin-V/PI-stained MDA-MB-231 and TTU-1 cells were photographed and observed.

[1] = system: MDA-MB-231 (breast cancer); experiment: XTT assay, viability of MDA-MB-231 at 450 nm; design: key to value of [the treated group−the blank group], Mean value: absorbance at 450 nm, treated minus blank
Method: Each of 5×10^3 breast cancer cells MDA-MB-231 and TTU-1 were seeded in a 96-well flat-bottomed microplate, and cultured in CO2 incubator. Cells were seeded in a 96-well tissue culture plate at a density of 10,000 cells for normal cells and 5,000 cells for cancer cells. DMEM plus 10% fetal bovine serum was used as a culture medium. At 24 hours after seeding, the extracts obtained in the Examples 1 to 3 were added to each well. At 12 hours after added the extracts, XTT solutions were added and then the cells were incubated for 2 hours. After that, absorbance value were measured using microplate spectrophotometer at a wavelength of 450 nm. In addition, Annexin-V/PI-stained MDA-MB-231 and TTU-1 cells were photographed and observed.
as §2
The following Table 4 and FIG. 9 show the value of [the treated group−the blank group] determined in cell line MDA-MB-231.

O=c1[nH]cc(F)c(=O)[nH]1 [Example 5-FU, 5-FU]
value of the treated group, Mean value (A549 (lung cancer); 1,000 ppm, 24 h): 2.298
value of the treated group, Mean value (A549 (lung cancer); 1,000 ppm, 48 h): 1.697
value of the treated group, Mean value (A549 (lung cancer); 1,000 ppm, 72 h): 0.863
value of the treated group, Mean value (A549 (lung cancer); 1,000 ppm, 96 h): 0.42
value of the treated group, Mean value (HepG2 (liver cancer); 1,000 ppm, 24 h): 2.867
value of the treated group, Mean value (HepG2 (liver cancer); 1,000 ppm, 48 h): 1.998
value of the treated group, Mean value (HepG2 (liver cancer); 1,000 ppm, 72 h): 1.853
value of the treated group, Mean value (HepG2 (liver cancer); 1,000 ppm, 96 h): 0.938

CC(=O)O[C@H]1C(=O)[C@@]2(C)[C@H]([C@H](OC(=O)c3ccccc3)[C@]3(O)C[C@H](OC(=O)[C@H](O)[C@@H](NC(=O)c4ccccc4)c4ccccc4)C(C)=C1C3(C)C)[C@]1(OC(C)=O)CO[C@@H]1C[C@@H]2O [Taxol]
course of the value as time goes by (FIG. 10) (TTU-1 (breast cancer)): increasing
value of [the treated group−the blank group], Mean value (TTU-1 (breast cancer); 1.2 × 10^−7M, 12 h): 0.079
value of [the treated group−the blank group], Mean value (TTU-1 (breast cancer); 1.2 × 10^−7M, 84 h): 0.123
value of [the treated group−the blank group], Mean value (TTU-1 (breast cancer); 1.2 × 10^−7M, 108 h): 0.012
value of [the treated group−the blank group], Mean value (TTU-1 (breast cancer); 1.2 × 10^−7M, 132 h): 0.084
value of [the treated group−the blank group], Mean value (TTU-1 (breast cancer); 2.5 × 10^−6M, 12 h): 0.067
value of [the treated group−the blank group], Mean value (TTU-1 (breast cancer); 2.5 × 10^−6M, 108 h): −0.002
value of [the treated group−the blank group], Mean value (TTU-1 (breast cancer); 2.5 × 10^−6M, 132 h): 0.035
course of the value as time goes by (FIG. 11) (A549 (lung cancer)): increasing
value of the treated group, Mean value (A549 (lung cancer); 35.1 uM/ml, 24 h): 2.438
value of the treated group, Mean value (A549 (lung cancer); 35.1 uM/ml, 48 h): 2.753
value of the treated group, Mean value (A549 (lung cancer); 35.1 uM/ml, 72 h): 2.6
value of the treated group, Mean value (A549 (lung cancer); 35.1 uM/ml, 96 h): 2.934
value of the treated group, Mean value (A549 (lung cancer); 70.2 uM/ml, 24 h): 2.488
value of the treated group, Mean value (A549 (lung cancer); 70.2 uM/ml, 48 h): 2.911
value of the treated group, Mean value (A549 (lung cancer); 70.2 uM/ml, 72 h): 2.691
value of the treated group, Mean value (A549 (lung cancer); 70.2 uM/ml, 96 h): 2.98
course of the value as time goes by (FIG. 12) (HepG2 (liver cancer)): increasing
value of the treated group, Mean value (HepG2 (liver cancer); 35.1 uM/ml, 24 h): 2.73
value of the treated group, Mean value (HepG2 (liver cancer); 35.1 uM/ml, 48 h): 2.604
value of the treated group, Mean value (HepG2 (liver cancer); 35.1 uM/ml, 72 h): 2.506
value of the treated group, Mean value (HepG2 (liver cancer); 35.1 uM/ml, 96 h): 2.546
value of the treated group, Mean value (HepG2 (liver cancer); 70.2 uM/ml, 24 h): 2.71
value of the treated group, Mean value (HepG2 (liver cancer); 70.2 uM/ml, 48 h): 2.595
value of the treated group, Mean value (HepG2 (liver cancer); 70.2 uM/ml, 72 h): 2.466
value of the treated group, Mean value (HepG2 (liver cancer); 70.2 uM/ml, 96 h): 2.389
course of the value as time goes by (FIG. 9) [1]: increasing
value of [the treated group−the blank group], Mean value ([1]; 1.2 × 10^−7M, 12 h): 0.074
value of [the treated group−the blank group], Mean value ([1]; 1.2 × 10^−7M, 84 h): 0.107
value of [the treated group−the blank group], Mean value ([1]; 1.2 × 10^−7M, 108 h): −0.006
value of [the treated group−the blank group], Mean value ([1]; 1.2 × 10^−7M, 132 h): 0.034
value of [the treated group−the blank group], Mean value ([1]; 2.5 × 10^−6M, 12 h): 0.076
value of [the treated group−the blank group], Mean value ([1]; 2.5 × 10^−6M, 84 h): 0.085
value of [the treated group−the blank group], Mean value ([1]; 2.5 × 10^−6M, 108 h): 0.024
value of [the treated group−the blank group], Mean value ([1]; 2.5 × 10^−6M, 132 h): −0.007
